From a melting point compilation (Tetko et al.; mined from patent text by program, amines drawn as free bases though some values may be those of a salt)
Residues, ends and D or L forms follow the SMILES beside them. *: point of attachment. Cbz = O=C(OCc1ccccc1)*

melting point	SMILES
96 to 97.5 °C	CCN(CC)CCOc1cccc2c1c1cc(Cl)ccc1n2Cc1ccccc1
211 to 212 °C	COc1ccc2nc(C3(c4ccc(S(N)(=O)=O)cc4)C=C(C(F)F)NN3)sc2c1 (configuration not stated)
111 to 112 °C	O=Cc1cccc(Sc2ccccc2Cl)c1O
232 °C	O=C(O)CCc1ccc(-c2nc(=O)c3ccccc3s2)nc1
158 to 160 °C	COc1cccc(-c2cccc(Oc3nc(OC)cc(OC)n3)c2C(=O)O)n1
122 to 125 °C	O=C1c2ccccc2C(=O)N1CCCCc1ccc(S(=O)(=O)Cl)cc1
210 to 213 °C	Cc1ccc(-c2ccc(C(=O)Nc3ccc4cc(CN5CCCC5)cnc4c3F)cc2)cc1
229 to 231 °C	CCOCc1nc2c(N)nc3ccccc3c2n1CC(C)(C)CS(N)(=O)=O
194 to 195 °C	O=C1C(=Cc2ccc(O)c(CO)c2)Cc2ccccc21
102 to 105 °C	Cc1cc(Cl)ccc1OCC(=O)N1Cc2ccc(C(=O)c3ccc(-c4ccccc4)cc3)n2Cc2ccccc21
140 to 143 °C	CCOc1cccc(NC(=O)Nc2ccc(N3CCN(C(=O)Nc4cc(OCCO)ccc4Cl)CC3)nc2)c1
> 250 °C	CCn1c(C)nc2cc(C(=O)O)ccc21
164 to 167 °C	O=C(O)c1ccccc1NCCC=C1c2ccccc2CCc2ccccc21
201 to 203 °C	COc1cc(F)ccc1C(=O)NC(C)c1nc(-c2ccncn2)cc(=O)n1C (racemic)
250 °C	Cn1cc(C(=O)O)c(=O)c2c3cc(N4CCC[C@H]4CNc4ccccc4)c(F)cc3ncc21
121 °C	Nc1ccccc1N1CCN(CCCCn2c(=O)[nH]c(=O)c3ccccc32)CC1
158 to 160 °C	COc1ccc(Oc2c(OC)cc([N+](=O)[O-])c3nccc(C)c23)cc1
110 to 111 °C	CCOC(=O)c1nn(-c2ccccc2)c2c1CCCc1ccccc1-2
218 °C	CC(C)(C)OC(=O)N1CCC(OCc2ccccc2)C1CC(O)Cn1cnc2ccc(F)c(F)c2c1=O (configuration not stated)
140 °C	CN1CN(C(=O)c2c(F)cccc2F)C(=O)N(c2ccc(Cl)cc2)C1
194 °C	Cc1c(Cc2cccc(C(=O)O)c2)n(S(=O)(=O)c2cccc(C(C)(C)C)c2)c2ccc(C(F)(F)F)cc12
175 to 176 °C	CCCCOc1nc(N)c2[nH]c(=O)n(CCCCN(CC(C)(C)CN(C)C)S(=O)(=O)c3cccc(CC(=O)O)c3)c2n1
77 to 82 °C	FC(F)(F)c1ccccc1CC[C@H]1CN(Cc2ccccc2)CCN1Cc1ccccc1
124 to 126 °C	COc1ccc(-n2cccc2-c2ccc(S(C)(=O)=O)cc2)cc1OC
82 °C	O=C(c1ccccc1)c1ccc(OCCO)cc1
223 to 224 °C	Cc1ccc(OC2CCN(C(C=O)Nc3ccc4c(c3)OCC(=O)N4)CC2)cc1 (configuration not stated)

melting point	SMILES
130 to 131 °C	Fc1cccc(F)c1-c1nccc(-c2ccc(Br)cc2)n1
98 to 99 °C	CCOC(=O)C=Cc1ccc(CCNS(=O)(=O)CCc2ccccc2)cc1
103 to 106 °C	COC(=O)CCCc1cc2cc(Cl)ccc2n1S(=O)(=O)c1ccc2nsnc2c1
75 to 77 °C	O=c1oc(-c2ccccc2)cc(O)c1C(CCCSc1ccccc1)Sc1ccccc1 (configuration not stated)
157 to 158 °C	O=[N+]([O-])c1cnn2c1-c1ccccc1NC2c1ccccc1 (configuration not stated)
145 to 146 °C	CCCC(C(=O)O)C1(c2ccccc2)CC(O)=C(Sc2ccccc2C(C)C)C(=O)O1 (configuration not stated)
121 °C	CCCCOc1cc(/C=C(\OCC)C(=O)O)ccc1OCCc1ccc(N(C)C(C)=O)cc1
107 to 110 °C	COC(=O)C(Oc1cccc2ccccc12)c1ccc(Oc2ccc(Cl)cc2)cc1 (configuration not stated)
119 to 121 °C	CCOC(=O)C1=C(C)NC(=S)N(C(=O)OCC)C1c1cccc(OCc2ccccc2)c1 (configuration not stated)
202 °C	CCOC(=O)CCc1cc2c(Nc3ccc4[nH]ccc4c3)c(C#N)cnc2s1
247 to 250 °C	CC(C)(C)c1cc(C2CCC3SC2CCC3c2cc(C(C)(C)C)c(O)c(C(C)(C)C)c2)cc(C(C)(C)C)c1O (configuration not stated)
127 to 128 °C	COc1ccc(CCc2nnc(-c3ccc4occc4c3)o2)cc1
62 to 65 °C	CCCCCCCCCCCCCCCCCCOc1cc(OCCOc2ccc3ccccc3c2)cc(C(=O)OCc2ccccc2)c1
159 to 161 °C	NC(=O)Nc1ccc2c(OCc3ccccc3-c3ccccc3)cccc2c1
145 to 147 °C	CN(C)CCC(Oc1ccc(NS(C)(=O)=O)cc1)c1ccccc1 (configuration not stated)
228 to 230 °C	CCNC(=O)c1ccc(CCN2CC=C(c3c[nH]c(-c4ccc(F)cc4)c3-c3ccncc3)CC2)cc1
226 °C	CC(=O)N1CCc2cc(S(=O)(=O)n3c(CCCC(=O)O)cc4nc(Cl)ccc43)ccc21
145 to 147 °C	Nc1cc(Cl)ccc1C(=O)NCCCc1cccnc1
148 to 152 °C	O=C(Nc1c(F)cccc1Cl)c1ccc(-n2nc(C(F)(F)F)cc2C2CC2)c(F)c1
125 to 126 °C	COC(=O)C(CC(C)C)NC(=O)C(Cc1ccccc1)NC(=O)OCc1ccccc1 (stereo not drawn) (Cbz-Phe-Leu-OMe; configuration not given here)
176 to 178 °C	CC1(C)Oc2c(c(=O)n(Cc3ccccc3)c3ccccc23)[C@@H](NC(=O)CCCCl)[C@@H]1O (relative stereo)
184 °C	O=C(c1ccc(F)cc1)C1CCN(CCCc2nc3ccccc3c(=O)[nH]2)CC1
167 to 168 °C	COc1ccc(C2Sc3cc(Oc4ccccc4)ccc3N(CCN(C)C)C(=O)C2OC(C)=O)cc1F (configuration not stated)
140 °C	CN(C)C(=O)Nc1ccc(Oc2ccc(C(F)(F)F)cc2Cl)cc1
182 to 184 °C	O=S(=O)(c1ccc(-c2ccc3cnc(Nc4ccc(N5CCOCC5)cc4)nn23)cc1)N1CCCC1
165 to 166 °C	C#CC(O)(c1ccccc1)c1ccncc1 (configuration not stated)

The remaining lines, values behind:

SMILES	melting point
Brc1ccc(-c2ccc(-c3ccc(Br)o3)cc2)o1	155 to 157 °C
COC(=O)c1cc(OP(=O)(OC)OC)c(C(=O)OC)s1	60 °C
O=C1CCC2c3ccccc3CCC2N1 (configuration not stated)	227 to 228 °C
CC(C)(C)Oc1nc2cc(F)c([N+](=O)[O-])cc2[nH]c1=NC#N	161 to 164 °C
COc1cc(C(=O)Nc2c(Cl)cncc2Cl)ccc1OC(F)F	170 °C
CN(C)Cc1ccnc(OCCCNc2c(N)c(=O)c2=O)c1	212 to 214 °C
CC1CNCC1NC(=O)OC(C)(C)C (configuration not stated)	86.8 to 87 °C
O=C(CC12CC3CC(CC(C3)C1)C2)Nc1cccc2nc(CCCNCCCO)ccc12	130 to 135 °C
Cn1nc(-c2ccncc2)nc1-c1ccncc1	168 to 170 °C
Cc1cc2c3c(c1N)c(=O)c(C(=O)O)cn3C(C)CC2 (configuration not stated)	264 to 266 °C
CCCCCCCCCCc1csc2c1sc1c2sc2c3scc(CCCCCCCCCC)c3sc21	108 °C
COc1ccc(OC(=O)c2ncn3c2[C@@H]2CCCN2C(=O)c2c(Cl)cccc2-3)cc1	210 to 211 °C
Cc1c(Cl)ccnc1C(=O)NCCNC(=O)OC(C)(C)C	134 to 135 °C
O=C(Cn1nnnc1-c1ccccc1)OCCO	54 to 55 °C
Cc1cn(C(C)C(=O)N(C)C)nc1-c1cccs1 (configuration not stated)	100 to 102 °C
NCCC(Nc1ccccc1)c1ccccc1 (configuration not stated)	104 to 105 °C
CCCCC1CCCc2oc(C(=N)N)cc21 (configuration not stated)	243 to 245 °C
CC(C)(C)OC(=O)Nc1c(F)ccc2c1OC(C)(C)O2	106 to 107 °C
CCCSc1ccc(N)c(C(=O)O)c1	91 to 93 °C
Fc1c(F)c(F)c(CSc2nc3cnccc3[nH]2)c(F)c1F	156 to 159 °C
CCC(=O)Nc1c(C#N)cnn1-c1c(Cl)cc(SC(F)(F)F)cc1Cl	153 to 156 °C
O=c1nc(-c2ccccn2)sc2ccc(Br)cc12	253 to 254 °C
CC1C(=O)Oc2c(Oc3ccccc3Cl)cccc21 (configuration not stated)	92 to 95 °C
CCOP(=O)(OCC)ON=C1C=CC(=C(C#N)c2ccccc2C)S1	90 to 91 °C
CCSc1nc2c(C(=O)OC)sc(C)c2[nH]1	159 to 160 °C

SMILES	melting point
CSCc1cc(=O)c2ccccc2o1	77 to 79 °C
Nc1nc(N)c(C=O)c(OCC2CCCCC2)n1	159 to 160 °C
CC(=Cc1c(Cl)cccc1Cl)[N+](=O)[O-]	49 to 50 °C
CC(=O)Nc1ccc2c(c1)OC(C)O2 (configuration not stated)	155 to 156 °C
COc1cc(-c2n[nH]c(N)n2)c(OC)cc1C	248 °C
C=CCOc1cc(C)ccc1[N+](=O)[O-]	30 to 32 °C
COC(=O)NC1=NCC(c2ccc(I)cc2)CN1 (configuration not stated)	209 to 210 °C
COc1cc(C(N)=O)c([N+](=O)[O-])cc1OC	197 °C
C=CCN(CC)C(=O)n1cnc(S(=O)CC)n1 (configuration not stated)	59 to 61 °C
O=C(O)CNC(=O)NCCCCC1CCSS1 (configuration not stated)	95 to 96 °C
COc1ccc(C(C#Cc2ccccc2)CC(=O)O)cc1OC1CCCC1 (racemic)	86 to 88 °C
CCCN1CCCC1CNC(=O)c1cc(S(N)(=O)=O)cc2c1OC(C)C2 (configuration not stated)	177 to 180 °C
COc1cc2c3c(c1OC)C=NCC3c1ccccc1CC2 (configuration not stated)	131 to 132 °C
CC(C)(C(=O)c1ccc(SCCCCCCS)cc1)N1CCOCC1	61 to 64 °C
Nc1cc(Br)nc(Br)c1	184 to 186 °C
CNc1c2c(nc3ccccc13)CCCC2O (configuration not stated)	160 to 161 °C
COC(=O)c1nc(Cl)cnc1N=S(C)C	167 to 169 °C
CCCCCCCCCCCCCCSCC(O)CNCCO (configuration not stated)	71.4 to 73.2 °C
O=C(O)CC1=CSCSC1	97 °C
CCCCc1ccc(C(=O)NCCN(C(C)=O)[C@@H](CCC(N)=O)C(=O)O)nc1	156 to 158 °C
CC(=O)Oc1c(-c2ccc(=O)[nH]n2)cc(Br)c(C)c1Br	220 °C
CCOC(=O)N=C(NC(=O)Nc1ccc(C)cc1)SCC	110 to 112 °C
O=C1CCCc2nc(C#Cc3ccccc3)ccc21	121 to 122 °C
S=C(Nc1c(Cl)cccc1Cl)N1CCN(c2cnccn2)CC1	225 to 227 °C
COc1ccc(N2CCN(n3ccnc3)CC2)cc1	159 °C
